Data published in PMC4832229 (Scientific Reports, 2016).
pEC50: −log10 of the molar value. Where two headings read alike, the source gives them in different places.

Columns and labels:
[1] = molecular target: T1, S1P2 (Homo sapiens, UniProt O95136); conditions: cited from earlier work
T1 construct: expressed in transfected cells; host or cells: HEK293

[2] = molecular target: T2, S1P4 (Homo sapiens, UniProt O95977); assay: TGFα-shedding assay, S1P4; format: cell-based; conditions: for pEC50: HEK293 cells, ligand 1 hour
T2 construct: expressed in transfected cells; host or cells: HEK293
T2 sequence (O95977 1-384): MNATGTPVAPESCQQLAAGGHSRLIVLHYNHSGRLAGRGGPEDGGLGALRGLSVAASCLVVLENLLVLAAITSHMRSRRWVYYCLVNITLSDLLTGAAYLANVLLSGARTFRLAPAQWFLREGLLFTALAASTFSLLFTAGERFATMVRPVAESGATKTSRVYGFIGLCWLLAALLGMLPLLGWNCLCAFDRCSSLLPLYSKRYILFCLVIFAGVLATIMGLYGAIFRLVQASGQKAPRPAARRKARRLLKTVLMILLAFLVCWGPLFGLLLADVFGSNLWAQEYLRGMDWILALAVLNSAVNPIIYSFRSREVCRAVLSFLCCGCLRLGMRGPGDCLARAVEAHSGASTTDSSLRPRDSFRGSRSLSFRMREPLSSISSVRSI
Description: (§1) The TGFα-shedding assay was performed essentially as described. Briefly, HEK293 cells were co-transfected with the indicated receptor expression construct and TGFα-alkaline phosphatase using Lipofectamine 2000 reagent (cat #11668019, Thermo Fisher), collected by trypsinization, washed with phosphate-buffered saline, and seeded into 96-well plates in Hank’s Balanced Saline Solution (HBSS). To improve assay sensitivity, S1P1 and S1P2 cells were co-transfected with Gαq/i1 chimeric protein, and S1P4 and S1P5 were co-transfected with Gαq/16, as previously described. Cells were stimulated with ligand for 1 hour, then alkaline phosphatase activity was detected in cells and in the supernatant. Receptor activity (% shedding) was defined as alkaline phosphatase activity of the supernatant/total alkaline phosphatase activity (cells + supernatant). Data processing and statistical analyses were performed with GraphPad Prism 6.

[3] = system: C6 rat glioma cells; assay: Viability assay (MTT) in C6 cells; format: cell-based; conditions: for pEC50: vehicle
Description: Cell viability was determined by 3-(4,5-dimethylthiazol-2-yl)-2,5-diphenyltetrazolium bromide (MTT) assay as described. Briefly, C6 cells were seeded into 96-well plates at 20,000 cells/well, incubated overnight, serum-starved for 4 h, and treated for 72 hours with cisplatin in the presence of CYM-5478 or vehicle.

[4] = molecular target: T3, S1P3 (Homo sapiens, UniProt Q99500); assay: TGFα-shedding assay, S1P3; format: cell-based; conditions: for pEC50: HEK293 cells, ligand 1 hour
T3 construct: expressed in transfected cells; host or cells: HEK293
Description: as §1

[5] = molecular target: T4, S1P2-EGFP (Homo sapiens, UniProt O95136); assay: Receptor internalization assay, S1P2-EGFP; format: cell-based; conditions: 1 μM ligand
T4 construct: expressed in transfected cells

[6] = system: MDA-MB-231 breast cancer cells; assay: Cell rounding assay in MDA-MB-231 cells (endogenous S1P2); format: cell-based; conditions: for cell rounding response: serum-starved MDA-MB-231 cells, S1P 1 μM
Description: Cell rounding was performed essentially as described. […] After 15 min, the cells were fixed and stained with fluorescein phalloidin and DAPI for cell morphology. The number of cells with retracted neurites and the number of total cells were counted in three separate fields for each sample, and the percentage of cells with retracted neurites was calculated.

[7] = system: ROS in C6 cells; assay: ROS assay (CellROX) in C6 cells; format: cell-based, rat; conditions: for effect on cisplatin-induced ROS: co-administered with cisplatin, CYM-5478 10 μM; for effect on CYM-5478-mediated attenuation of cisplatin-induced ROS: cisplatin + CYM-5478
Description: Cells were plated in clear-bottom, black-walled 96-well plates at ~50% confluence, incubated overnight, then treated overnight with cisplatin in the presence of the indicated compounds. All conditions were vehicle-controlled (0.1% DMSO). […] Cells were photographed with a 20X objective lens, 3 fields per well, 3 wells per condition. Quantification was performed using ImageJ software, but dividing the total integrated density of CellROX® labelling by the number of cells per Hoechst staining.

[8] = system: other S1P receptor subtypes; assay: TGFα-shedding assay, other S1P receptor subtypes (summary statement); format: cell-based; conditions: subtypes other than S1P2
Description: as §1

[9] = system: caspase 3/7 activity in C6 cells; assay: Caspase-Glo 3/7 assay in C6 cells; format: cell-based, rat
Description: Cells were plated in clear-bottom, black-walled 96-well plates at ~50% confluence, incubated overnight, then treated overnight with cisplatin in the presence of vehicle or 10 μM CYM-5478. Caspase activation was evaluated by Caspase-Glo 3/7 Assay System (Promega Corporation) per manufacturer’s instructions.

[10] = molecular target: T5, S1P5 (Homo sapiens, UniProt Q9H228); assay: TGFα-shedding assay, S1P5; format: cell-based
T5 construct: expressed in transfected cells; host or cells: HEK293
Description: as §1

[11] = molecular target: T6, S1P1 (Homo sapiens, UniProt P21453); assay: TGFα-shedding assay, S1P1; format: cell-based; conditions: for pEC50: HEK293 cells, ligand 1 hour
T6 construct: expressed in transfected cells; host or cells: HEK293
Description: as §1

[12] = molecular target: T1, S1P2; assay: TGFα-shedding assay, S1P2; format: cell-based
Description: as §1

[13] = system: C6 cells; assay: Cell death assay (propidium iodide exclusion) in C6 cells; format: cell-based, rat
Description: Cell death was evaluated by propidium iodide exclusion assay. Cells were plated in 96-well plates at ~50% confluence, incubated overnight, then treated with cisplatin (67 μM) for 24 hours in the presence of vehicle or 10 μM CYM-5478. Cell were treated with Hoechst 33342 (1 mg/ml) and propidium iodide (0.3 mg/ml) for 20 minutes, washed with phosphate-buffered saline, then rapidly photographed with a Cytation 3 automated imager (Biotek Instruments, Inc.). % cell death reflects a ratio of propidium iodide-positive and Hoechst 33342-positive cells.

[14] = molecular target: T7, S1P1-EGFP (Homo sapiens, UniProt P21453); assay: Receptor internalization assay, S1P1-EGFP; format: cell-based; conditions: 1 μM ligand
T7 construct: expressed in transfected cells

[15] = system: NOX3 complex (Nox3, NoxO1, NoxA1); assay: NOX3 activity assay (luminol) in transfected HEK293 cells; format: cell-based; conditions: HEK293, S1P 1 μM, 15 minutes
Description: NOX3 activity was determined as previously described. […] Indicated values were taken 15 minutes following stimulation.

[16] = molecular target: T8, S1P3-EGFP (Homo sapiens, UniProt Q99500); assay: Receptor internalization assay, S1P3-EGFP; format: cell-based; conditions: 1 μM ligand
T8 construct: expressed in transfected cells
T8 sequence (Q99500 whole entry): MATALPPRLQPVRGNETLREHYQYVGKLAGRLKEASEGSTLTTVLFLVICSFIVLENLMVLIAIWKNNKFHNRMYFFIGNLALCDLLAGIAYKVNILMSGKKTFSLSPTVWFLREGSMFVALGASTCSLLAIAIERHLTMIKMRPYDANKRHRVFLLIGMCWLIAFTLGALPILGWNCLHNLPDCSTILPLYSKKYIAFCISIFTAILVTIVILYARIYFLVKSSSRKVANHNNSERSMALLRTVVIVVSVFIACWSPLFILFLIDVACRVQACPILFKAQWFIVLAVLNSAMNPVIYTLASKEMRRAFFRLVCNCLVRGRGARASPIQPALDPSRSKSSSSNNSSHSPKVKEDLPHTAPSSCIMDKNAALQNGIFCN

T6 sequence (P21453 whole entry, species assumed): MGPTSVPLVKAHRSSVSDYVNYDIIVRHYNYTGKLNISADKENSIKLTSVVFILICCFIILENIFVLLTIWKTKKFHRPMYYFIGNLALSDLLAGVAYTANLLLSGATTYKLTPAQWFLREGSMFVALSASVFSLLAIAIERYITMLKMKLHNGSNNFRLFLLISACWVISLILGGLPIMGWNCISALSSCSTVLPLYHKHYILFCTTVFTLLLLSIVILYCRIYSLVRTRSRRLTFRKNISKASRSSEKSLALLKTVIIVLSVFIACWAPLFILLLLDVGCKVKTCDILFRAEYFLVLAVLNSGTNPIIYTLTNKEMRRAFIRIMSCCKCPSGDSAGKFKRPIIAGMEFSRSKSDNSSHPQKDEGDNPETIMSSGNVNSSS
T1 sequence (O95136 whole entry, species assumed): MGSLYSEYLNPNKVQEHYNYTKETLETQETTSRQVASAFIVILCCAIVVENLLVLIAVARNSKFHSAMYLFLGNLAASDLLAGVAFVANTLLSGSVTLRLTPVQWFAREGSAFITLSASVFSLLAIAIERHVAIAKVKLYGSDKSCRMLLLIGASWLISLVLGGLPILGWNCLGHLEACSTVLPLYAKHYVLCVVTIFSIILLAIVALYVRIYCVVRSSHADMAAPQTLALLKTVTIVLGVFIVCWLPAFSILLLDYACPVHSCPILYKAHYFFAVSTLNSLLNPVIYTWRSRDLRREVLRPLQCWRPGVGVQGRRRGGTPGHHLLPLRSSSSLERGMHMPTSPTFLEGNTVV
T3 sequence (Q99500 whole entry, species assumed): as the sequence (Q99500 whole entry) above
T4 sequence (O95136 whole entry): as the sequence (O95136 whole entry, species assumed) above
T5 sequence (Q9H228 whole entry, species assumed): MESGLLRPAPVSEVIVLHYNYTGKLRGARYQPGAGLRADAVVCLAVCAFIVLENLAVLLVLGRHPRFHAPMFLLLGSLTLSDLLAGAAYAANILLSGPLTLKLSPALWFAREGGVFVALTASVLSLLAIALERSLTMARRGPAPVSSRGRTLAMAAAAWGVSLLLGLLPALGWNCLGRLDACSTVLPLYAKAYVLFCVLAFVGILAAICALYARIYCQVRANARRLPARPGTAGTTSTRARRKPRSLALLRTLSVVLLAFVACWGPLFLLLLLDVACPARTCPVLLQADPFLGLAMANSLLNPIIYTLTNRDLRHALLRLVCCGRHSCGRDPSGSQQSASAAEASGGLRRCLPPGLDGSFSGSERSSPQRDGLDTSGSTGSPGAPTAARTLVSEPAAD
T7 sequence (P21453 whole entry): as the sequence (P21453 whole entry, species assumed) above

Molecule: Cc1cc(C(=O)Cn2cc(C(F)(F)F)ccc2=O)c(C)n1Cc1ccccc1 [CYM-5478]
- pEC50 ([1]; Scripps Research Institute Molecular Screening Center HTS, ref http://pubchem.ncbi.nlm.nih.gov/assay/assay.cgi?aid=872, read-out: EC50 in the original screen): 6.14
- pEC50 ([1]; read-out: EC50 in subsequent validation studies): 6.11
- pEC50 [2]: < 5.00
- increase in EC50 of cisplatin conferred by co-administration ([3]; C6 cells, 10 μM CYM-5478): 3 fold
- increase in viability in the presence of 10% fetal bovine serum ([3]; C6 cells, 10% fetal bovine serum (data not shown)): absent
- effect on EC50 of cisplatin in the presence of 1 mM N-acetylcysteine ([3]; C6 cells, vs vehicle-treated): no significant difference
- protection of C6 cells from exogenously administered ROS (hydrogen peroxide) ([3]; presence vs absence of CYM-5478): equally sensitive
- concentrations giving statistically significant, dose dependent increase in viability ([3]; serum-starved C6 cells, MTT): above 100 nM
- pEC50 [4]: 5.71
- S1P3 Emax ([4]; relative to S1P): 20.8%
- internalization of S1P2-EGFP [5]: induced the internalization of S1P2-EGFP
- cell rounding response [6]: identical rounding response
- effect on cisplatin-induced ROS [7]: significantly attenuated
- efficacy against the other S1P receptor subtypes [8]: less than 25%
- lower potency against the other S1P receptor subtypes vs S1P2 [8]: 10 fold
- effect on cisplatin-induced caspase 3/7 activity ([9]; co-administration of 10 μM CYM-5478): markedly attenuated
- pEC50 ([10]; HEK293 cells, ligand 1 hour): < 5.00
- pEC50 [11]: 5.77
- S1P1 Emax ([11]; relative to S1P): 24.2%
- pEC50 ([12]; HEK293 cells, ligand 1 hour): 6.92
- S1P2 Emax ([12]; relative to S1P): 99.5%
- effect on cisplatin-induced increase in propidium iodide-positive cells ([13]; co-administration of 10 μM CYM-5478 with cisplatin 67 μM, 24 hours): attenuated
- change in propidium iodide-positive cells, treatment alone ([13]; without cisplatin): no significant change

Molecule: N.N.[Cl][Pt][Cl] [Cisplatin, cis-Diammineplatinum(II) dichloride]
- pEC50 ([3]; C6 cells, 72 hours, MTT, read-out: EC50 of cisplatin-mediated reduction in viability, + vehicle): 5.87
- ROS accumulation (CellROX fluorescence) ([7]; cisplatin 20 μM, 24 hours): increase in ROS
- caspase 3/7 activity ([9]; overnight): significant increase in caspase 3/7 activity
- increase in propidium iodide-positive cells ([13]; cisplatin 67 μM, 24 hours): > 3 fold

Molecule: c1ccc2c(c1)[I+]c1ccccc1-2 [DPI, diphenyleneiodonium]
- effect on cisplatin-induced ROS [7]: phenocopied

Molecule: OO [H2O2, hydrogen peroxide]
- pEC50 ([3]; C6 cells, read-out: EC50 of hydrogen peroxide, + vehicle): 5.73

Molecule: CCN(CC)CCCC(C)Nc1nc(C)cc(Nc2ccc3nc(C)cc(N)c3c2)n1 (centres unmarked) [NSC23766]
- effect on cisplatin-induced ROS [7]: phenocopied

Molecule: CCCCCCCCCCCCC/C=C/[C@@H](O)[C@@H](N)COP(=O)(O)O [S1P, sphingosine 1-phosphate]
- internalization of S1P1-EGFP [14]: largely internalized to cytoplasmic vesicles
- Emax [2]: 100%
- pEC50 [2]: 6.76
- S1P-dependent reduction of NOX3 ROS, co-transfected S1P1 [15]: not observed
- S1P-dependent reduction of NOX3 ROS, co-transfected S1P3 [15]: not observed
- effect on NOX3 ROS generation, co-transfected S1P2 [15]: further attenuated
- Emax [4]: 100%
- pEC50 [4]: 7.26
- internalization of S1P2-EGFP [5]: largely internalized to cytoplasmic vesicles
- cell rounding response [6]: pronounced cytoskeletal rearrangement characterized by process retraction and cell rounding
- Emax [10]: 100%
- pEC50 [11]: 6.94
- Emax [12]: 100%
- internalization of S1P3-EGFP [16]: largely internalized to cytoplasmic vesicles

Molecule: C[C@@H](N)[C@H]1CC[C@H](C(=O)Nc2ccncc2)CC1 [Y-27632]
- effect on CYM-5478-mediated attenuation of cisplatin-induced ROS [7]: complete attenuation of CYM-5478 activity
- effect on cisplatin-induced ROS [7]: no effect on cisplatin-induced ROS

Molecule: JTE-013
- effect of pre-treatment on CYM-5478-induced cell rounding ([6]; pre-treatment 15 minutes before CYM-5478): similarly abrogated
- effect of pre-treatment on S1P-induced cell rounding ([6]; pre-treatment 15 minutes before S1P (1 μM)): completely abrogated
- effect on CYM-5478-mediated attenuation of cisplatin-induced ROS [7]: complete attenuation of CYM-5478 activity
- effect on cisplatin-induced ROS [7]: no effect on cisplatin-induced ROS
